The record followed here is US20220370586A1, “METHOD OF GENERATING ACTIVATED T CELLS FOR CANCER THERAPY” (Cedars-Sinai Medical Center, priority 2019, published 2022).

One assay has as its system T effector cells. The experiment in a line: T cell suppression assay (CFSE proliferation of T effector cells, FACS). The settings on record: for effect on T effector cell proliferation (in words): T cell activation by antigen presenting cells, with or without Tregs; for increase of T cell expansion compared to T control group (without molecule): with T-reg (1:1). The class given is cell-based, human. An excerpt:
PBMC was isolated (Ficoll, GE Healthcare) from the WBC cone collected from healthy platelet donor. Cells were washed and passed through 40 um cell strainer before being stained with T cell surface antibodies. Then cells were put on cell sorter (BD FACSARIA III). Specific cell populations were collected as follows: CD4^+CD25^− cells (T effector cells), CD4^+CD25^+CD45RA^+CD127^− cells (T regulatory cells) and CD3^− cells (serve as Antigen Presenting Cells, APC). T effector cells were labeled with CellTrace CFSE (Invitrogen), heavily washed before cell number counting. Effector cells and T-regs were then mixed together at 1:1 ratio in culture media (RPMI 1640, 10% FBS, Pen-Strep and 1% NEAA) which enhanced with anti-CD3 (3 ug/ml) anti-CD28 (2 ug/ml) antibodies. APCs were treated with Mitomycin (50 ug/ml) for 30 minutes at 37° C., 5% CO2 incubator, then added to culture mix (APC:T-eff 2:1) as a proliferation co-stimulator. Cell mixture was incubated at 37° C., 5% CO2 for 6 days before being re-stained with T cell surface markers (CD4, CD25) and sent for FACS analysis (FIGS. 1A-1B, 4 and 5).
Molecule 11702 and 11704 were added to treat groups respectively at a concentration gradient of 5 uM, 25 uM and 50 uM.
FACS results focus on CD4^+CD25^−CFES^+ population (T effector cells). […] As T cells proliferate and replicate, CFSE peaks extend successively to left and become less fluorescent (toward negative range). The more cell population moves to left, the stronger the proliferation.

The subject of another assay is B16 melanoma. The experiment in a line: B16 melanoma implantation in C57 BL mice. The class given is in vivo. How it is done: After implantation of B16 melanoma, C57 BL mice underwent treatment with 11702 GITR agonist or DMSO control. (A) Animals lived longer after GITR agonist intraperitoneal 30 mg/kg treatment twice per week (p=0.0333, log rank). (B) Tumor volume was inhibited in 11702 treated animals (p<0.05, Anova).
After implantation of B16 melanoma, C57 BL mice underwent treatment with 11702 GITR agonist or DMSO control. […] (B) Tumor volume was inhibited in 11702 treated animals (p<0.05, Anova).

In the case of `OCC1OC(Nc2ccc(-c3ccc(NC4CC(O)C(CO)O4)cc3)cc2)CC1O` (stereo not shown) [RMGL171102], in the assay on T effector cells, the “effect on T effector cell proliferation (in words)” value is recorded as “highly active”. Also, in the assay with T effector cells (T effector without T-reg), the “most effective dose to accelerate T cell proliferation” value is given as “around 25 uM”. For the same compound, the “increase of proliferated population compared to base line” value was determined as 47.4% in the assay on T effector cells (T effector without T-reg, 5 uM); 61.7% with T effector cells (T effector without T-reg, 25 uM); 52% in the assay with T effector cells (T effector without T-reg, 50 uM). Besides, the “increase of T cell expansion compared to T control group (without molecule)” value with T effector cells (5 uM) amounted to 34.4%; with T effector cells (25 uM), 96.7%; in the assay on T effector cells (50 uM) it was 107.1%. In the assay with B16 melanoma (intraperitoneal 30 mg/kg twice per week vs DMSO control, p=0.0333, log rank), the survival entry is on record as “lived longer”. Further, the “PD-1 expression on activated CD4+ and effector memory CD8+ tumor infiltrating lymphocytes” value with B16 melanoma (vs DMSO control) was “increased PD-1 expression”. Moreover, the “activated CD4+ cells among tumor infiltrating lymphocytes (FACs)” value in the assay on B16 melanoma (vs DMSO control) is given as “increased presence”. Also, the “effector memory cytotoxic CD8+ T cells among tumor infiltrating lymphocytes (FACs)” value with B16 melanoma (vs DMSO control) is given as “increased”. The Tumor volume result in the assay on B16 melanoma (vs DMSO control, p<0.05, Anova) is “inhibited”.
With `O=C(CCCCC(=O)NN=Cc1cccc(O)c1)NN=Cc1cccc(O)c1` [RMGL171104], the inhibition at 50 µM with T effector cells (Homo sapiens, T-cell, T effector without T-reg, 50 uM, read-out: inhibition (decrease) of T cell proliferation) turned out to be 39.1%. For the same compound, the inhibition at 25 µM in the assay with T effector cells (Homo sapiens, T-cell, with T-reg, 25 uM, read-out: inhibition (decrease) of T cell expanding) came out at 33.9%. Moreover, the “effect on T effector cell proliferation (in words)” value in the assay with T effector cells is “dose dependent retraction of T effector cells”. The “effect on T effector cells” value with T effector cells (T effector without T-reg, 5 uM) was “no significant effect”; in the assay on T effector cells (T effector without T-reg, 25 um), “no significant effect”. The “decrease of proliferation compared to base line” value with T effector cells (with T-reg, 50 uM) worked out at 55.9%.
